{
  "source": "paper PMC7180728",
  "about": "“Novel Anthraquinone Compounds Inhibit Colon Cancer Cell Proliferation via the Reactive Oxygen Species/JNK Pathway” (Molecules, 2020)",
  "key": {"JNK": {"test_system": "JNK", "assay": "Western blot, phosphorylated and total JNK", "type": "cell-based, human", "conditions": "HCT116, western blot", "excerpt": "To further elucidate the mechanism by which 8a inhibits proliferation and induces apoptosis of HCT116 cells, the levels of phosphorylated and total JNK protein were examined by western blot analysis. […] Phosphorylation of JNK activated by the ROS pathway results in overexpression of tumor suppressor factors, thereby inducing apoptosis. In addition, JNK phosphorylation is associated with ROS production. To determine whether ROS production contributes to JNK1/2 phosphorylation and its related mechanisms, we blocked 8a-induced ROS production in HCT116 cells and then analyzed the changes in JNK 1/2 phosphorylation by western blotting. […] Furthermore, pre-treatment of cells with NAC reduced the levels of p-JNK induced by 8a.\nThe expression of signaling pathway-related proteins was detected by western blot analysis. Cell (1 × 10^6) were plated in 90-mm dishes and treated with 8a for 24 h. The cells were treated with NAC in the same way as in step 4.7. Resuspend the cells in Buffer A (1 mM EDTA, 1 mM PMSF, 0.28 μg/mL apotinin, 50 μg/mL leupeptin, 7 μg/mL pepstain A) and transferred to a 1 mL glass homogenizer and pull up and down 30 times in an ice bath. Cells were collected and centrifuged (1000 g × 10 min, 4 °C). The obtained supernatant and precipitate were the crude cytoplasm and mitochondria, respectively. The cytosolic fraction was transferred to an ultra-ion tube and centrifuged (100,000g × 1 hr, 4 °C), and the resulting supernatant was the purified cytosolic fraction. The mitochondrial pellet was resuspended in Buffer B (1mM EGTA, 1mM PMSF, 0.28 μg/mL apotinin, 50 μg/mL leupeptin, 7 μg/mL pepstain A), centrifuged (10,000g × 10 min, 4 °C), and repeated 3 times. The mitochondria pellet was lysed in cell lysate buffer (1% NP-40, 2 μg/mL aprotinin, 2 μg/mL leupeptin, 1mM EDTA, 1mM Na vanadate). Protein concentrations in the supernatant were determined by using a Minbio BCA protein assay kit. Protein were separated by SDS-PAGE and transferred to a PVDF membrane. The membrane was blocked, and incubated with primary detection antibodies overnight at 4 °C. […]"}, "[1]": {"test_system": "caspase 9, cleaved caspase 9, caspase 3, cleaved caspase 3", "assay": "Western blot, caspases", "type": "cell-based, human", "conditions": "HCT116, western blot", "excerpt": "Caspases represent a key molecular group in the regulation of apoptosis. In caspases, there is an upstream and downstream relationship between the initiator of apoptosis and executioner. Caspase 3 is one of the key executers of apoptosis, as it is either partially or totally responsible for the proteolytic cleavage of many key proteins. For example, when caspase 9 is activated, it activates caspase 3, which ultimately triggers cell apoptosis. After detecting the expression of the corresponding Bcl-2 family proteins after 8a treatment by western blotting, we went on to detect the expression levels of PARP, caspase 9, cleaved caspase 9, caspase 3, and cleaved caspase 3 proteins. […] After 24 h of treatment with zVAD-FMK, cell viability is 93%.\nThe expression of signaling pathway-related proteins was detected by western blot analysis. Cell (1 × 10^6) were plated in 90-mm dishes and treated with 8a for 24 h. The cells were treated with NAC in the same way as in step 4.7. Resuspend the cells in Buffer A (1 mM EDTA, 1 mM PMSF, 0.28 μg/mL apotinin, 50 μg/mL leupeptin, 7 μg/mL pepstain A) and transferred to a 1 mL glass homogenizer and pull up and down 30 times in an ice bath. Cells were collected and centrifuged (1000 g × 10 min, 4 °C). […] Protein concentrations in the supernatant were determined by using a Minbio BCA protein assay kit. […]"}, "FHC": {"test_system": "FHC", "assay": "MTT cell proliferation assay, normal colorectal cells FHC", "type": "cell-based", "conditions": "FHC normal human colorectal mucosa, 48 h", "procedure": "(§1) The effects of the synthesized amide anthraquinone derivatives on the proliferative activity of eight human cancerous cell lines (EC9706, MCF-7, SGC-7901, HepG2, QBC939, HeLa, HCT116 and SW480) in addition to two normal human cell lines (colorectal FHC and liver HL7702) were evaluated using the standard MTT assay.\n(§2) The human esophageal cancer cell line EC9706 was obtained from Cancer Hospital and Institute by Prof. Ming Rong Wang, Chinese Academy Medical of Sciences. The human colorectal carcinoma cell lines HCT116 and SW480, hepatoma cell line HepG2, cervical carcinoma cell line HeLa, breast cancer cell line MCF-7, gastric cancer cell line SGC-7901, cholangiocarcinoma cell line QBC939, normal fetal colon cell line FHC and liver cell line HL-7702 were obtained from the Cell Bank of the Shanghai Chinese Academy of Sciences. All cells were cultured in RPMI 1640 medium containing 100 U/mL penicillin and streptomycin and 10% fetal bovine serum and maintained at 37°C under a 5% CO2 atmosphere.\n(§3) We analyzed the inhibitory effects of eight anthraquinone-amino acid derivatives on the proliferation of eight tumor cell lines and two normal cell lines in vitro using MTT assays. Cells were added to a 96-well plate with (5,000 cells per well in 100 µL RPMI-1640 medium). Cells were treated with different concentrations (10–100 μg/mL) of 8a–8h for 48 h and then incubated with 20 μL MTT (5 mg/mL) for another 4 h at 37°C. DMSO (150 μL) was then added to each well to dissolve the formazan crystals. The absorbance of each well was read at 490 nm on a microtiter plate ELISA reader. The mean values were obtained from a minimum of three parallel experiments. IC50 values were calculated."}, "SW480": {"test_system": "SW480", "assay": "MTT cell proliferation assay, SW480", "type": "cell-based", "conditions": "Homo sapiens, SW480 colon cancer, 48 h", "procedure": "as §1, §2, §3"}, "QBC939": {"test_system": "QBC939", "assay": "MTT cell proliferation assay, QBC939", "type": "cell-based", "conditions": "Homo sapiens, QBC939 cholangiocarcinoma, 48 h", "procedure": "as §1, §2, §3"}, "[2]": {"test_system": "mitochondrial membrane potential of HCT116 cells", "assay": "Mitochondrial membrane potential, JC-1 flow cytometry", "type": "cell-based, human", "conditions": "24 h", "procedure": "Decreased mitochondrial membrane potential is a hallmark of early cell apoptosis, and a decrease in mitochondrial membrane potential leads to the release of certain mitochondrial proteins, such as cytochrome c, which mediate apoptosis. Therefore, we examined changes in mitochondrial membrane potential by flow cytometry. HCT116 cells were treated with 8a (10 or 20 μg/mL) for 24 h and then stained with 2 μg/mL JC-1 for 30 min prior to flow cytometric analysis. Green /orange fluorescence ratio of JC-1, compare with control, is 200% and 494.4%, respectively (Figure 8E,F). […] During apoptosis, mitochondrial cytochrome C is released into the cytoplasm and triggers the activation cascade of caspase. HCT116 cells were collected after 8a treatment, cytoplasmic protein and mitochondrial protein were extracted. The levels of cytochrome c in the cytoplasm and mitochondria were detected by Western blotting. After treatment of HCT116 cells with 8a (10 or 20 μg/mL) for 24 h, cytoplasmic levels of cytochrome c increased, while the levels in the mitochondria decreased.\nThe 1×10^4 cells were treated with different concentrations of 8a for 24 h. Cells were then incubated with 500 μL JC-1 ([…]) for 30 min at 37 °C in the dark. The level of mitochondrial membrane potential depolarization was measured by flow cytometry. Data were analyzed using the Cell Quest program (BD, New York, The United States)."}},
  "data": [
    {"smiles": "CC(C)CC(NC(=O)c1ccc2c(c1[N+](=O)[O-])C(=O)c1ccccc1C2=O)C(=O)O", "note": "(centres unmarked) [Compound 8a, N-[(9,10-dihydro-1-nitro-9,10-dioxo-2-anthracenyl)carbonyl-leucine]]", "values": [
      {"measurement": "levels of phosphorylated JNK", "setting": "JNK; 20 μg/mL, time course", "value": "gradually increased with time"},
      {"measurement": "total JNK levels", "setting": "JNK; 20 μg/mL, time course", "value": "not altered"},
      {"measurement": "levels of p-JNK induced by 8a after NAC pre-treatment", "setting": "JNK; 8a 20 μg/mL with NAC pre-treatment", "value": "reduced"},
      {"measurement": "expression of cleaved caspase 9 and cleaved caspase 3", "setting": "[1]", "value": "increased in a dose-dependent manner"},
      {"measurement": "caspase 9 and caspase 3 expression levels", "setting": "[1]; with increasing 8a concentration", "value": "gradually decreased"},
      {"measurement": "IC50", "setting": "FHC", "value": "> 1000", "unit": "µg/mL"},
      {"measurement": "IC50", "setting": "SW480", "value": "31.09 ± 0.1", "unit": "µg/mL"},
      {"measurement": "IC50", "setting": "QBC939", "value": "43.13 ± 0.05", "unit": "µg/mL"},
      {"measurement": "Green/orange fluorescence ratio of JC-1, compared with control", "setting": "[2]; 10 μg/mL", "value": 200, "unit": "%"},
      {"measurement": "Green/orange fluorescence ratio of JC-1, compared with control", "setting": "[2]; 20 μg/mL", "value": 494.4, "unit": "%"},
      {"measurement": "mitochondrial membrane potential (in words)", "setting": "[2]; 10 or 20 μg/mL", "value": "decreased the mitochondrial membrane potential in a dose-dependent manner"}
    ]}
  ]
}
